Data on one molecule can be found in ChEMBL document CHEMBL5537154, “Smart glypican-3-targeting peptide-chlorin e6 conjugates for targeted photodynamic therapy of hepatocellular carcinoma” (Eur J Med Chem, 2024).

Series [1] deals with chymotrypsin (Homo sapiens, UniProt P17538+P40313+Q6GPI1+Q99895). Nature of the series: Stability of compound assessed as chymotrypsin (unknown origin)-mediated compound degradation in PBS at pH 7.4 by measuring half life. In kind it is ADME, protein assay.
Series [2] is described as follows: Drug uptake in human Huh-7 cells at 10 uM by confocal microscopy. The conditions noted are these: huh-7, 10 µM, TDE = time-dependent effect, time 4-24 hrs. In kind it is ADME, cell-based.
Series [3] in a line: Toxicity in BALB/C nude mouse model xenografted with human HepG2 cells assessed as damage in heart at 1 to 2 uM/kg, iv administered every two days for 21 days along with 250 mW/cm2 light irradiation at 660 nm for 10 mins at 1 hr post-compound administration by H and E staining based analysis. In kind it is organism-based. As to conditions: in vivo, 505.17 h, dose 1-2 µM/Kg, time 505.166 hrs. (In general: Xenograft models place foreign cells or tissue in a host animal.)

In series [4] the test system is HepG2. Nature of the series: Antiproliferative activity against human HepG2 cells under 10 J/cm2 light irradiation at 660 nm by CCK8 assay. The class given is functional, cell-based. As to conditions: HepG2, light or radiation study. (Formazan colour is commonly taken as a measure of viable cells.)
Series [5] is described as follows: Toxicity in BALB/C nude mouse model xenografted with human HepG2 cells assessed as damage in kidney at 1 to 2 uM/kg, iv administered every two days for 21 days along with 250 mW/cm2 light irradiation at 660 nm for 10 mins at 1 hr post-compound administration by H and E staining based analysis. As to conditions: in vivo, 505.17 h, dose 1-2 µM/Kg, time 505.166 hrs. In kind it is organism-based.

The nature of series [6]: Toxicity in BALB/C nude mouse model xenografted with human HepG2 cells assessed as change in heart weight at 1 to 2 uM/kg, iv administered every two days for 21 days along with 250 mW/cm2 light irradiation at 660 nm for 10 mins at 1 hr post-compound administration. The class given is organism-based. As to conditions: in vivo, 505.17 h, dose 1-2 µM/Kg, time 505.166 hrs.

Peptide text beside a SMILES is read from it.

Broadly, the half-life is how long it takes for the measured level to halve. What is called IC50 is the concentration at which inhibition is half-maximal. High values mean weaker potency in that assay, low ones greater potency in that assay. Consider `C=Cc1c(C)c2cc3nc(c(CC(=O)O)c4[nH]c(cc5nc(cc1[nH]2)C(C)=C5CC)c(C)c4C(=O)NCCCC(=O)N[C@@H](CC(=O)O)C(=O)N[C@@H](Cc1cnc[nH]1)C(=O)N[C@@H](CC(C)C)C(=O)N[C@@H](C)C(=O)N[C@@H](CO)C(=O)N[C@@H](CC(C)C)C(=O)N[C@@H](Cc1c[nH]c2ccccc12)C(=O)N[C@@H](Cc1c[nH]c2ccccc12)C(=O)NCC(=O)N[C@H](C(=O)N[C@@H](CCC(=O)O)C(=O)N[C@@H](CC(C)C)C(=O)O)[C@@H](C)O)[C@@H](CCC(=O)O)[C@@H]3C` (HELM PEPTIDE1{[C=Cc1c(C)c2cc3nc(c(CC(=O)O)c4[nH]c(cc5nc(cc1[nH]2)C(C)=C5CC)c(C)c4C(=O)[*:2])[C@@H](CCC(=O)O)[C@@H]3C].[O=C(CCCN[*:1])[*:2]].D.H.L.A.S.L.W.W.G.T.E.L}$$$$V2.0), for which the half-life in series [1] was 7.6 h. Besides, the Drug uptake result in series [2] is “Tde”. Further, the Activity result in series [3], in series [5] and in series [6] was “Non-Toxic” each time. For the same molecule, in series [4], the IC50 came out at 820 nM.
